The source made the active and inactive calls. No cut-off for these calls is given here.
Key:
Rattus norvegicus [1] = assay: Toxicity in po dosed Wistar rat assessed as mortality within 1 week; assay type: organism-based; details: in vivo, 168 h
Rattus norvegicus [2] = assay: Antiamnesic activity against scopolamine-induced dementia in Wistar rat assessed as decrease in occurrence of mistakes at 0.5 mg/kg, po; assay type: functional, organism-based; set-up: dose 0.5 mg/kg
Rattus norvegicus [3] = assay: Antiamnesic activity against scopolamine-induced memory loss and learning impairment in Wistar rat assessed as transfer latency period to reach from open arm to closed arm ends measured on day 2 at 0.5 mg/kg, po by elevated plus maze test; assay type: functional
Rattus norvegicus [4] = assay: Antiamnesic activity against scopolamine-induced dementia in Wistar rat assessed as latency period to improve memory at 0.5 mg/kg, po; assay type: functional
Rattus norvegicus [5] = assay: Antiamnesic activity against scopolamine-induced memory loss and learning impairment in Wistar rat at 0.5 mg/kg, po by Y maze test; assay type: functional, organism-based; set-up: dose 0.5 mg/kg
Rattus norvegicus [6] = assay: Antiamnesic activity against scopolamine-induced dementia in Wistar rat assessed as basal latency period to reach shock free zone at 0.5 mg/kg, po; assay type: functional
Rattus norvegicus [7] = assay: Cholinergic toxicity in po dosed Wistar rat assessed as occurrence of defecation after 1 week; assay type: organism-based; details: in vivo, 168 h
Rattus norvegicus [8] = assay: Cholinergic toxicity in po dosed Wistar rat assessed as occurrence of salivation after 1 week; assay type: organism-based; details: in vivo, 168 h
Rattus norvegicus [9] = assay: Antiamnesic activity against scopolamine-induced memory loss and learning impairment in Wistar rat assessed as transfer latency period to reach from open arm to closed arm ends measured on day 1 at 0.5 mg/kg, po by elevated plus maze test; assay type: functional
[10] = biological target: T1, Muscarinic acetylcholine receptor M1 (Rattus norvegicus, UniProt P08482); assay: Displacement of [3H]QNB from muscarinic M1 receptor in Wistar rat brain cortex after 2 hrs by liquid scintillation counting
T1 sequence (P08482 whole entry): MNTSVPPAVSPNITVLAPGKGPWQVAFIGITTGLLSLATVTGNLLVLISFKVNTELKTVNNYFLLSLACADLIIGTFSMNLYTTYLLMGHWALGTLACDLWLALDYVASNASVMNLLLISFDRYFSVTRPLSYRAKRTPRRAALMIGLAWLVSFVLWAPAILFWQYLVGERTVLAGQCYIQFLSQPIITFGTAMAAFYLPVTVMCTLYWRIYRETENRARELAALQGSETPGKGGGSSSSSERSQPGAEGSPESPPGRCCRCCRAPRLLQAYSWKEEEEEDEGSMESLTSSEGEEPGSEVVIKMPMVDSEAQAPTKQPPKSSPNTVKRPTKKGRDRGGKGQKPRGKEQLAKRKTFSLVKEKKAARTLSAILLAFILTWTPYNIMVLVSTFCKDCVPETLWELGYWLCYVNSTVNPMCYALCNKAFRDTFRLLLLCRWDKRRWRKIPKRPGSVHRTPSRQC

[11] = biological target: T2, Muscarinic acetylcholine receptor M1 (Rattus norvegicus) (UniProt P08482); assay: Agonist activity at muscarinic M1 receptor in Wistar rat cerebral cortex assessed as [3H]myoinositol (1,4,5)-triphosphate level per gram of protein at 100 uM after 1 hr by liquid scintillation counting; assay type: functional, tissue-based
T2 sequence (whole entry): T1 sequence (P08482 whole entry)

Row | SMILES | Activity (Rattus norvegicus [1]) | Activity (Rattus norvegicus [2]) | Time (Rattus norvegicus [3]) | Time (Rattus norvegicus [4]) | Activity (Rattus norvegicus [5]) | Time (Rattus norvegicus [6]) | Activity (Rattus norvegicus [7]) | Activity (Rattus norvegicus [8]) | Time (Rattus norvegicus [9]) | IC50 [10] | Ki [10] | Activity [11]
1 | CN1CCC=C(C2CN(C(=O)c3cccc([N+](=O)[O-])c3)CCO2)C1 (stereo unspecified) | Non-toxic | Active | 47 s | 4 s | Active | 10 s | Non-toxic | Non-toxic | 64 s |  |  | 
2 | CN1CCC=C(C2CN(C(=O)c3ccc([N+](=O)[O-])cc3)CCO2)C1 (stereo unspecified) | Non-toxic | Active | 52 s | 5 s | Active | 10 s | Non-toxic | Non-toxic | 64 s |  |  | 
3 | CN1CCC=C(C2CN(C(=O)c3ccccc3)CCO2)C1 (stereo unspecified) | Non-toxic | Active | 35 s | 6 s | Active | 10 s | Non-toxic | Non-toxic | 53 s |  |  | 
4 | CN1CCC=C(C2CN(C(=O)c3ccc(C(C)(C)C)cc3)CCO2)C1 (stereo unspecified) | Non-toxic | Active | 53 s | 6 s | Active | 11 s | Non-toxic | Non-toxic | 65 s |  |  | 
5 | CN1CCC=C(C2CN(C(=O)c3ccc(Cl)cc3)CCO2)C1 (stereo unspecified) | Non-toxic | Active | 17 s | 3 s | Active | 7 s | Non-toxic | Non-toxic | 37 s |  |  | 
6 | COC(=O)C1=CCCN(C)C1 [ARECOLINE] | Non-toxic |  | 36 s | 5 s | Active | 10 s |  |  | 52 s |  |  | 
7 | CN1CCC=C(C2CN(C(=O)c3ccccc3[N+](=O)[O-])CCO2)C1 (stereo unspecified) | Non-toxic | Active | 52 s | 5 s | Active | 10 s | Non-toxic | Non-toxic | 66 s | 618 µM | 126 µM | 0.65 pmol
8 | CN1CCC=C(C2CN(C(=O)c3cc(Cl)ccc3Cl)CCO2)C1 (stereo unspecified) | Non-toxic | Active | 53 s | 9 s | Active | 11 s | Non-toxic | Non-toxic | 66 s |  |  | 
9 | Cc1ccc(C(=O)N2CCOC(C3=CCCN(C)C3)C2)cc1 (stereo unspecified) | Non-toxic | Active | 13 s | 4 s | Active | 8 s | Non-toxic | Non-toxic | 33 s |  |  | 

From ChEMBL document CHEMBL1157004 (Bioorg Med Chem, 2009)
